Patent publication US9961899B2, “Nematicidal aqueous suspension concentrate compositions” (Monsanto Technology LLC, priority 2012, dated 2018)

Columns and labels:
Type in all cases: physicochemical
[1] = Mechanical pressure analysis of polymorphs (CARVER press, XRD); details: approximately 15,000 psi for approximately 20 seconds
Procedure: Batches of 3-phenyl-5-(thiophen-2-yl)-1,2,4-oxadiazole polymorphic Forms I and II were placed in a CARVER press and compressed at approximately 15,000 psi for approximately 20 seconds in two separate experiments. XRD analysis was performed on the samples. The resulting XRD pattern matched the starting material in both experiments, as shown in FIGS. 5A and 5B for Forms I and II, respectively. […] The Form II used in this experiment was obtained by recrystallization from the melt of Form I, as described in Example 14, above.

[2] = Storage stability of polymorphs (humidity chambers / ambient, XRD)
Text: To determine the storage stability and/or hydrate formation of 3-phenyl-5-(thiophen-2-yl)-1,2,4-oxadiazole Form I material during storage at ambient conditions, samples were monitored in two static humidity chambers. […] Solutions of saturated potassium chloride (84% RH) and sodium chloride (75% RH) salts at ambient temperature were used.

[3] = Grinding analysis of polymorphs (ball mill, XRD); details: ball mill 2 minutes at 4800 oscillations per minute
Procedure: Batches of 3-phenyl-5-(thiophen-2-yl)-1,2,4-oxadiazole polymorphic Forms I and II were ground using a CRESCENT WIG-L-BUG ball mill for 2 minutes at 4800 oscillations per minute (3.2 m/s) in two separate experiments. […] The Form II used in this experiment was obtained by recrystallization from the melt of Form I, as described in Example 14, above, […]

[4] = Estimation of polymorph transition temperature from DSC data; details: calculated from DSC thermal data
Procedure: Polymorphic Forms I and II of 3-phenyl-5-(thiophen-2-yl)-1,2,4-oxadiazole, as well as a 50/50 mixture thereof, were analyzed by DSC at a slow heating rate of 2° C. per minute, with similar sample sizes. […] Form II has a higher melting temperature and a lower enthalpy of fusion. […] FIGS. 9A through 9C show the relevant DSC thermograms for Form I, Form II, and a mixture of Forms I and II, respectively.
The thermal data using the procedure set forth above was used to calculate an approximate value for the transition temperature of conversion of Forms I and II, resulting in an estimated transition temperature value of 102° C.

c1ccc(-c2noc(-c3cccs3)n2)cc1 [Form I, 3-phenyl-5-(thiophen-2-yl)-1,2,4-oxadiazole]
polymorphic change under mechanical pressure (XRD) [1]: did not reveal any changes in the polymorphic form | storage stability / hydrate formation (XRD) ([2]; 75 and 84% RH, ambient temperature, 4 weeks): does not form a hydrate and appears to be thermodynamically stable over time | polymorphic transformation on grinding (XRD) [3]: no transformation was observed

c1ccc(-c2noc(-c3cccs3)n2)cc1 [Form II, 3-phenyl-5-(thiophen-2-yl)-1,2,4-oxadiazole]
polymorphic change under mechanical pressure (XRD) [1]: did not reveal any changes in the polymorphic form | storage stability (XRD) ([2]; scintillation vial, ambient conditions, approximately 6 days): showed signs of transformation to Form I | polymorphic transformation on grinding (XRD) [3]: transformed to Form I

c1ccc(-c2noc(-c3cccs3)n2)cc1 [Ia-i, 3-phenyl-5-(thiophen-2-yl)-1,2,4-oxadiazole]
transition temperature between Forms I and II [4]: approximately 102 °C
